The results in this text go back to ChEMBL document CHEMBL2346628, “Real-time analysis of membrane permeabilizing effects of oleanane saponins” (Bioorg Med Chem, 2013).

Active and inactive are the calls of the source. The calls are words filed in the database; no cut-off is given here.

Data set [1] concerns ECV-304. The data set is described as follows: Membrane permeabilization effect on human ECV304 cells assessed as normalized cell index at 24 uM measured every 15 secs for 3 hrs by real time impedance-based plate reader analysis relative to control relative to control. The data set is classed as functional.
For data set [2], the system named is ECV-304. The data set can be described thus: Membrane permeabilization effect on human ECV304 cells at 3 to 24 uM measured every 15 secs for 3 hrs by real time impedance-based plate reader analysis. Type of data set: functional, cell-based.
Data set [3] has as its system ECV-304. The data set can be described thus: Membrane permeabilization effect on human ECV304 cells at 3 to 6 uM measured every 15 secs for 3 hrs by real time impedance-based plate reader analysis. Type of data set: functional, cell-based.
For data set [4], the system named is ECV-304. The data set is described as follows: Membrane permeabilization effect on lysosome of human ECV304 cells up to 48 uM after 1 hr by N-Acetylglucosaminidase release assay. Type of data set: functional, cell-based.
The nature of data set [5]: Hemolytic activity against human RBC at 1.5 to 48 uM after 30 mins. The data set is classed as ADME, cell-based. Conditions: erythrocyte, 0.5 h.
Data set [6] has as its system ECV-304. The data set can be described thus: Membrane permeabilization effect on lysosome of human ECV304 cells assessed as induction of membrane lysis up to 6 uM after 1 hr by N-Acetylglucosaminidase release assay. The data set is classed as functional, cell-based.
Data set [7] concerns ECV-304. The data set is described as follows: Membrane permeabilization effect on human ECV304 cells assessed as propidium iodide uptake up to 48 uM after 1 hr by FACS flow cytometric analysis. Type of data set: functional, cell-based. In general terms: A flow cytometer gives signals particle by particle.
The test system of data set [8] is ECV-304. The data set is described as follows: Membrane permeabilization effect on human ECV304 cells assessed as normalized cell index at 12 uM measured every 15 secs for 3 hrs by real time impedance-based plate reader analysis relative to control. The data set is classed as functional.

As for `CC1(C)[C@@H](O[C@H]2O[C@H](C(=O)O)[C@@H](O)[C@H](O)[C@H]2O[C@@H]2O[C@H](C(=O)O)[C@@H](O)[C@H](O)[C@H]2O)CC[C@]2(C)[C@H]3C(=O)C=C4[C@@H]5C[C@@](C)(C(=O)O)CC[C@]5(C)CC[C@@]4(C)[C@]3(C)CC[C@@H]12` [GLYCYRRHIZIN], the outcome in data set [1], in data set [2], in data set [3], in data set [4], in data set [6] and in data set [7] was inactive. The result in data set [8] was inactive. For the same compound, the Activity entry in data set [5] was “Non-toxic”.
